Values after ≈ are worked out from the molar mass of the structure shown.
What was measured:
Type in all cases: physicochemical
[1] = Dynamic vapor sorption (DVS)
Protocol: The sample (9.869 mg) was placed on a Pt pan, and the sample was allowed to equilibrate at 25° C. at 50% relative humidity (r.h.) before starting a pre-defined humidity program. The predefined humidity programs include 1.0 hours 50%, from 50% r.h. to 0% r.h.; 5% r.h. per hour, 5 hours at 0% r.h., from 0% r.h. to 93% r.h.; 5% r.h. per hour, 5 hours at 93% r.h., from 93% r.h. to 50% r.h.; and 5% r.h. per hour, 1 hours at 50% r.h.
(§1) (approx. ±0.1%). After storing for 3 days at 96% r.h. at room temperature (Test 49), FIG. 29a, and at 40° C. […] The water uptake measured by the Karl Fischer method was very low (<0.2%). […] The broad background in the XRPD diagram, FIG. 26, is due to water remaining in the sample after careful drying at room temperature following filtration of the suspension. The Karl Fischer result indicates 45% water content.

[2] = Karl Fischer moisture analysis after humidity storage; conditions: after storing 3 days at 96% r.h.
Protocol: as §1, with “Karl Fischer moisture analyses were carried out according to standard procedures. […] (approx.” for “(approx.”

[3] = Phase equilibration experiment in water, solid form checked by XRPD; conditions: stirring 3 days, 23° C. (room temperature)
Protocol: as §1

[4] = Storage in humidity chamber at 96% r.h., solid form checked by XRPD; conditions: for solid form by XRPD after storing in humidity chamber: 96% r.h.
Protocol: Desolvation of the solvates tends to produce the amorphous form.
as §1

[5] = Phase equilibration experiments in EtOAc/heptane 1:7 v/v; conditions: 3 days
[6] = Measurement of the approximate solubility at ambient temperature; conditions: organic solvent or mixture, 23° C.
Protocol: In some embodiments, to determine the approximate solubility at room temperature, solvent was added in steps to the solid material. After every addition, the sample was well stirred. The addition of solvent was continued until complete dissolution or until 20 ml of solvent was added.
In other embodiments, aliquots of the test solvent were added to an accurately weighed amount of the compound of Formula I in small increments (usually 100-1000 μL), with sonication until complete dissolution was obtained, if possible. Dissolution was determined visually. The actual solubilities may be higher than reported due to slow dissolution rates or the use of excess solvent. The approximate solubility was determined in mg/mL to the nearest whole number.
The approximate solubility at ambient temperature must be known in order to carry out systematic crystallization experiments.

SMILES: Cc1cc(OC[P@@]2(=O)OCC[C@@H](c3cccc(Cl)c3)O2)cc(C)c1Cc1ccc(O)c(C(C)C)c1 [Crystal form C]
- water uptake (DVS) ([1]; FIG. 29a): less than 0.2 % by weight
- solid form by XRPD following DVS analysis ([1]; FIGS. 24 and 25): did not transition to a different polymorph
- hygroscopicity ([1]; conclusion from DVS and humidity tests): non-hygroscopic
- water uptake measured by the Karl Fischer method [2]: < 0.2%
- solid form by XRPD after phase equilibration in water [3]: no transformation of the crystal form
- solid form by XRPD after phase equilibration in water ([3]; listed as crystalline Form C): no transformation
- solid form by XRPD after storing in humidity chamber ([4]; 23° C. (room temperature), 3 days): no transformation of the crystal form
- solid form by XRPD after storing in humidity chamber ([4]; 40° C., 3 days): no transformation of the crystal form
- hydrate formation ([4]; conclusion from DVS, humidity storage and water equilibration): does not show any evidence of hydrate formation
- solid form after phase equilibration in EtOAc/heptane 1:7 v/v ([5]; 78° C.): no transformation
- solid form after phase equilibration in EtOAc/heptane 1:7 v/v ([5]; room temperature): no transformation

SMILES: Cc1cc(OC[P@@]2(=O)OCC[C@@H](c3cccc(Cl)c3)O2)cc(C)c1Cc1ccc(O)c(C(C)C)c1 [Starting Material A]
- solubility ([6]; methyl ethyl ketone, thermodynamic from solid, methy ethyl ketone): > 480 mg/mL
- solubility ([6]; thermodynamic from solid, 1-octanol): > 200 mg/mL
- solubility ([6]; thermodynamic from solid, 2,2,2-trifluoroethanol): ~195 mg/mL (≈ 379 mM)
- solubility ([6]; thermodynamic from solid, EtOAc): ~772 mg/mL (≈ 1500 mM)
- solubility ([6]; thermodynamic from solid, EtOAc/n-heptane 75:25 v/v): > 200 mg/mL
- solubility ([6]; thermodynamic from solid, N-methyl-2-pyrrolidone (NMP)): > 200 mg/mL
- solubility ([6]; thermodynamic from solid, THF): > 384 mg/mL
- solubility ([6]; thermodynamic from solid, THF/water 75:25 v/v): 190 mg/mL (≈ 369 mM)
- solubility ([6]; thermodynamic from solid, acetic acid): > 200 mg/mL
- solubility ([6]; thermodynamic from solid, acetone/n-heptane 75:25 v/v): > 200 mg/mL
- solubility ([6]; thermodynamic from solid, acetone/water 75:25 v/v): > 200 mg/mL
- solubility ([6]; thermodynamic from solid, acetonitrile): > 480 mg/mL
- solubility ([6]; thermodynamic from solid, acetonitrile/water 75:25 v/v): > 200 mg/mL
- solubility ([6]; thermodynamic from solid, chloroform): > 388 mg/mL
- solubility ([6]; thermodynamic from solid, dichloromethane): > 480 mg/mL
- solubility ([6]; thermodynamic from solid, ethanol): > 200 mg/mL
- solubility ([6]; thermodynamic from solid, ethanol/n-heptane 75:25 v/v): > 200 mg/mL
- solubility ([6]; thermodynamic from solid, ethanol/water 75:25 v/v): > 200 mg/mL
- solubility ([6]; thermodynamic from solid, methyl nonafluorobutyl ether): < 39 mg/mL
- solubility ([6]; thermodynamic from solid, methylcyclohexane): < 40 mg/mL
- solubility ([6]; thermodynamic from solid, n-heptane): < 38 mg/mL
- solubility ([6]; thermodynamic from solid, nitrobenzene): > 200 mg/mL
- solubility ([6]; thermodynamic from solid, pyridine): > 200 mg/mL
- solubility ([6]; thermodynamic from solid, tert-butyl methyl ether (TBME)): > 200 mg/mL
- solubility ([6]; thermodynamic from solid, tetrahydrofuran (THF)/n-heptane 75:25 v/v): > 200 mg/mL
- solubility ([6]; thermodynamic from solid, toluene): > 200 mg/mL

SMILES: Cc1cc(OC[P@@]2(=O)OCC[C@@H](c3cccc(Cl)c3)O2)cc(C)c1Cc1ccc(O)c(C(C)C)c1 [THF solvate]
- solid form by XRPD after storing in humidity chamber ([4]; 23° C. (room temperature), 8 weeks): a mixture of the solvate and the amorphous form

Reference: US12227533B2, “Crystalline forms and methods of producing crystalline forms of a compound” (Viking Therapeutics, Inc., priority 2018, dated 2025)
